Measured values published in patent publication US20240132511A1, “TREATMENTS OF PRADER-WILLI SYNDROME” (Neuren Pharmaceuticals Limited, priority 2021, published 2024).

Row | melting point [°C] | SMILES
1 | 174 to 177 | C[C@@]12CCCN1C(=O)C1(CCCCC1)NC2=O [Cyclic cyclohexyl-G-2-MeP, (8aS)-Methyl-spiro[cyclohexane-1,3(4H)-tetrahydropyrrolo[1,2-a]pyrazine]-1,4(2H)-dione]
2 | 160 to 163 | C[C@@]12CCCN1C(=O)C1(CCCC1)NC2=O [Cyclic cyclopentyl-G-2-MeP, (8aS)-Methyl-spiro[cyclopentane-1,3(4H)-tetrahydropyrrolo[1,2-a]pyrazine]-1,4(2H)-dione]
